Reference: patent publication US7807439B2, “Staphylococcus aureus-specific detection media and identifying and/or counting method using same” (Biomerieux S.A., priority 2001, dated 2010)

Tests used:
Assay in all cases: Experiment 1: chromogenic α-glucosidase substrates in gelled medium, colony coloration
Settings in all cases: substrate 100 mg/l
S. saprophyticus 064 = assay type: cell-based, Staphylococcus saprophyticus; parameters: key to I (intensity of coloration): 0 corresponds to a lack of activity; 0.1 corresponds to the presence of a trace of coloration; 0.5 corresponds to the presence of a very pale coloration; 1 corresponds to the presence of a clear coloration of weak intensity; 1.5 corresponds to the presence of a coloration which is intermediate between colorations 1 and 2; 2 corresponds to the presence of a true coloration of medium intensity; 2.5 corresponds to the presence of a coloration which is intermediate between colorations 2 and 3; 3 corresponds to the presence of an intense coloration; 3.5 corresponds to the presence of a coloration which is intermediate between colorations 3 and 4; 4 corresponds to the presence of a very intense coloration; key to C (coloration of the colonies): —: the symbol “−” is synonymous with a lack of colour or intensity
Description: (§1) The α-glucosidase substrates are solubilized in dimethyl sulfoxide at a concentration of 200 g/l. A sufficient volume to obtain a final concentration of substrate of 100 mg/l is added to the four molten media. Microorganisms derived from the bioMérieux internal collection were seeded onto each one of the media, on their own as three dials, using a suspension at 0.5 MacFarland. However, results obtained with microorganisms derived from collections available to the public, ATCC or NCTC for example, would give identical results. The dishes were incubated at 37° C. for 48 hours. The colonies were examined visually after an incubation time of 24 and 48 hours. The coloration and also the intensity of this coloration were noted.
(§2) In table 2 below, as in the tables which will follow, C represents the coloration of the colonies after incubation, I represents the intensity of this coloration, the symbol “−” is synonymous with a lack of colour or intensity, and, finally, TI defines the incubation time. It should be noted that the intensity of the coloration is an arbitrary scale, but which is common to all the biological samples and all the media tested. This scale is valid for this experiment and also for all the experiments which will follow. It can be defined in the following way: • 0 corresponds to a lack of activity, • 0.1 corresponds to the presence of a trace of coloration, • 0.5 corresponds to the presence of a very pale coloration, • 1 corresponds to the presence of a clear coloration of weak intensity, • 1.5 corresponds to the presence of a coloration which is intermediate between colorations 1 and 2, • 2 corresponds to the presence of a true coloration of medium intensity, • 2.5 corresponds to the presence of a coloration which is intermediate between colorations 2 and 3, • 3 corresponds to the presence of an intense coloration • 3.5 corresponds to the presence of a coloration which is intermediate between colorations 3 and 4, • 4 corresponds to the presence of a very intense coloration.

S. xylosus 008 = assay type: cell-based, Staphylococcus xylosus; parameters: key to I (intensity of coloration): 0 corresponds to a lack of activity; 0.1 corresponds to the presence of a trace of coloration; 0.5 corresponds to the presence of a very pale coloration; 1 corresponds to the presence of a clear coloration of weak intensity; 1.5 corresponds to the presence of a coloration which is intermediate between colorations 1 and 2; 2 corresponds to the presence of a true coloration of medium intensity; 2.5 corresponds to the presence of a coloration which is intermediate between colorations 2 and 3; 3 corresponds to the presence of an intense coloration; 3.5 corresponds to the presence of a coloration which is intermediate between colorations 3 and 4; 4 corresponds to the presence of a very intense coloration; key to C (coloration of the colonies): —: the symbol “−” is synonymous with a lack of colour or intensity
Description: as §1, §2

S. intermedius 075 = assay type: cell-based, Staphylococcus intermedius; parameters: key to I (intensity of coloration): 0 corresponds to a lack of activity; 0.1 corresponds to the presence of a trace of coloration; 0.5 corresponds to the presence of a very pale coloration; 1 corresponds to the presence of a clear coloration of weak intensity; 1.5 corresponds to the presence of a coloration which is intermediate between colorations 1 and 2; 2 corresponds to the presence of a true coloration of medium intensity; 2.5 corresponds to the presence of a coloration which is intermediate between colorations 2 and 3; 3 corresponds to the presence of an intense coloration; 3.5 corresponds to the presence of a coloration which is intermediate between colorations 3 and 4; 4 corresponds to the presence of a very intense coloration; key to C (coloration of the colonies): —: the symbol “−” is synonymous with a lack of colour or intensity
Description: as §1, §2

S. epidermidis 009 = assay type: cell-based, Staphylococcus epidermidis; parameters: key to I (intensity of coloration): 0 corresponds to a lack of activity; 0.1 corresponds to the presence of a trace of coloration; 0.5 corresponds to the presence of a very pale coloration; 1 corresponds to the presence of a clear coloration of weak intensity; 1.5 corresponds to the presence of a coloration which is intermediate between colorations 1 and 2; 2 corresponds to the presence of a true coloration of medium intensity; 2.5 corresponds to the presence of a coloration which is intermediate between colorations 2 and 3; 3 corresponds to the presence of an intense coloration; 3.5 corresponds to the presence of a coloration which is intermediate between colorations 3 and 4; 4 corresponds to the presence of a very intense coloration; key to C (coloration of the colonies): —: the symbol “−” is synonymous with a lack of colour or intensity
Description: as §1, §2

S. aureus 276 = assay type: cell-based, Staphylococcus aureus; parameters: key to I (intensity of coloration): 0 corresponds to a lack of activity; 0.1 corresponds to the presence of a trace of coloration; 0.5 corresponds to the presence of a very pale coloration; 1 corresponds to the presence of a clear coloration of weak intensity; 1.5 corresponds to the presence of a coloration which is intermediate between colorations 1 and 2; 2 corresponds to the presence of a true coloration of medium intensity; 2.5 corresponds to the presence of a coloration which is intermediate between colorations 2 and 3; 3 corresponds to the presence of an intense coloration; 3.5 corresponds to the presence of a coloration which is intermediate between colorations 3 and 4; 4 corresponds to the presence of a very intense coloration
Description: as §1, §2

S. aureus 004 = assay type: cell-based, Staphylococcus aureus; parameters: key to I (intensity of coloration): 0 corresponds to a lack of activity; 0.1 corresponds to the presence of a trace of coloration; 0.5 corresponds to the presence of a very pale coloration; 1 corresponds to the presence of a clear coloration of weak intensity; 1.5 corresponds to the presence of a coloration which is intermediate between colorations 1 and 2; 2 corresponds to the presence of a true coloration of medium intensity; 2.5 corresponds to the presence of a coloration which is intermediate between colorations 2 and 3; 3 corresponds to the presence of an intense coloration; 3.5 corresponds to the presence of a coloration which is intermediate between colorations 3 and 4; 4 corresponds to the presence of a very intense coloration
Description: as §1, §2

S. aureus 070 = assay type: cell-based, Staphylococcus aureus; parameters: key to I (intensity of coloration): 0 corresponds to a lack of activity; 0.1 corresponds to the presence of a trace of coloration; 0.5 corresponds to the presence of a very pale coloration; 1 corresponds to the presence of a clear coloration of weak intensity; 1.5 corresponds to the presence of a coloration which is intermediate between colorations 1 and 2; 2 corresponds to the presence of a true coloration of medium intensity; 2.5 corresponds to the presence of a coloration which is intermediate between colorations 2 and 3; 3 corresponds to the presence of an intense coloration; 3.5 corresponds to the presence of a coloration which is intermediate between colorations 3 and 4; 4 corresponds to the presence of a very intense coloration
Description: as §1, §2

C (coloration of the colonies) (S. saprophyticus 064; TI 24 h) | I (intensity of coloration) (S. saprophyticus 064; TI 24 h) | C (coloration of the colonies) (S. saprophyticus 064; TI 48 h) | I (intensity of coloration) (S. saprophyticus 064; TI 48 h) | C (coloration of the colonies) (S. xylosus 008; TI 24 h) | I (intensity of coloration) (S. xylosus 008; TI 24 h) | C (coloration of the colonies) (S. xylosus 008; TI 48 h) | I (intensity of coloration) (S. xylosus 008; TI 48 h) | C (coloration of the colonies) (S. intermedius 075; TI 24 h) | I (intensity of coloration) (S. intermedius 075; TI 24 h) | C (coloration of the colonies) (S. intermedius 075; TI 48 h) | I (intensity of coloration) (S. intermedius 075; TI 48 h) | C (coloration of the colonies) (S. epidermidis 009; TI 24 h) | I (intensity of coloration) (S. epidermidis 009; TI 24 h) | C (coloration of the colonies) (S. epidermidis 009; TI 48 h) | I (intensity of coloration) (S. epidermidis 009; TI 48 h) | C (coloration of the colonies) (S. aureus 276; TI 24 h) | I (intensity of coloration) (S. aureus 276; TI 24 h) | C (coloration of the colonies) (S. aureus 276; TI 48 h) | I (intensity of coloration) (S. aureus 276; TI 48 h) | Compound | further results
— | 0 | — | 0 | — | 0 | pink | 0.5 | — | 0 | pink | 0.5 | — | 0 | — | 0 | pink | 1.5 | pink | 1.5 | OC[C@H]1O[C@H](Oc2c[nH]c3cc(Cl)ccc23)[C@H](O)[C@@H](O)[C@@H]1O [Pink-a-GLU, 6-Chloro-3-indoxyl-α-D-glucoside] | C (coloration of the colonies) (S. aureus 004; TI 24 h): pink; I (intensity of coloration) (S. aureus 004; TI 24 h): 1; C (coloration of the colonies) (S. aureus 004; TI 48 h): pink; I (intensity of coloration) (S. aureus 004; TI 48 h): 1; C (coloration of the colonies) (S. aureus 070; TI 24 h): pink; I (intensity of coloration) (S. aureus 070; TI 24 h): 2; C (coloration of the colonies) (S. aureus 070; TI 48 h): pink; I (intensity of coloration) (S. aureus 070; TI 48 h): 2
— | 0 | — | 0 | — | 0 | pink | 2.5 | — | 0 | pink | 1.5 | — | 0 | — | 0 | pink | 2 | pink | 2 | OC[C@H]1O[C@H](Oc2c[nH]c3cc(Br)ccc23)[C@H](O)[C@@H](O)[C@@H]1O [Red “A” a-GLU, 6-Bromo-3-indoxyl-α-D-glucoside] | C (coloration of the colonies) (S. aureus 004; TI 24 h): pink; I (intensity of coloration) (S. aureus 004; TI 24 h): 0.5; C (coloration of the colonies) (S. aureus 004; TI 48 h): pink; I (intensity of coloration) (S. aureus 004; TI 48 h): 2.5; C (coloration of the colonies) (S. aureus 070; TI 24 h): pink; I (intensity of coloration) (S. aureus 070; TI 24 h): 2; C (coloration of the colonies) (S. aureus 070; TI 48 h): pink; I (intensity of coloration) (S. aureus 070; TI 48 h): 2.5

Compound | C (coloration of the colonies) (S. saprophyticus 064; TI 24 h) | I (intensity of coloration) (S. saprophyticus 064; TI 24 h) | C (coloration of the colonies) (S. saprophyticus 064; TI 48 h) | I (intensity of coloration) (S. saprophyticus 064; TI 48 h) | C (coloration of the colonies) (S. xylosus 008; TI 24 h) | I (intensity of coloration) (S. xylosus 008; TI 24 h) | C (coloration of the colonies) (S. xylosus 008; TI 48 h) | I (intensity of coloration) (S. xylosus 008; TI 48 h) | C (coloration of the colonies) (S. intermedius 075; TI 24 h) | I (intensity of coloration) (S. intermedius 075; TI 24 h) | C (coloration of the colonies) (S. intermedius 075; TI 48 h) | I (intensity of coloration) (S. intermedius 075; TI 48 h) | C (coloration of the colonies) (S. epidermidis 009; TI 24 h) | I (intensity of coloration) (S. epidermidis 009; TI 24 h) | C (coloration of the colonies) (S. epidermidis 009; TI 48 h) | I (intensity of coloration) (S. epidermidis 009; TI 48 h) | C (coloration of the colonies) (S. aureus 276; TI 24 h) | I (intensity of coloration) (S. aureus 276; TI 24 h) | C (coloration of the colonies) (S. aureus 276; TI 48 h) | I (intensity of coloration) (S. aureus 276; TI 48 h) | further results
5-bromo-4-chloro-3-indoxyl-α-D-glucoside [X-a-GLU] | — | 0 | turquoise | 0.5 | turquoise | 0.5 | turquoise | 1.5 | turquoise | 0.5 | turquoise | 2 | — | 0 | turquoise | 1 | turquoise | 2 | turquoise | 2 | C (coloration of the colonies) (S. aureus 004; TI 24 h): turquoise; I (intensity of coloration) (S. aureus 004; TI 24 h): 1; C (coloration of the colonies) (S. aureus 004; TI 48 h): turquoise; I (intensity of coloration) (S. aureus 004; TI 48 h): 2; C (coloration of the colonies) (S. aureus 070; TI 24 h): turquoise; I (intensity of coloration) (S. aureus 070; TI 24 h): 1.5; C (coloration of the colonies) (S. aureus 070; TI 48 h): turquoise; I (intensity of coloration) (S. aureus 070; TI 48 h): 1.5
